Among the test systems are A498; A549; COLO 205; EKVX; HCC 2998; HOP-62; HOP-92; IGROV-1; LOX IMVI; MCF7; MDA-MB-231; MOLT-4; Malme-3M; OVCAR-4; OVCAR-5; PC-3; SF-539; U-251; UACC-62; UO-31.
Assay in all cases: growth of human tumour cells (NCI), 48 h

SMILES strings stand for the structures.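 Five concentrations, 48 hours, 96-well plates. GI50 = concentration required for 50% inhibition of growth.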 Calls of active or inactive are those of the source. Cut-off read from the data, not from the text of the source: active = GI50 up to about 1.1 µM and inactive = higher. Some results are limits rather than exact numbers.

Regarding `Nc1ccc2c(c1)C(=O)c1ccccc1-2`, the GI50 in the assay with A498 is 49 µM (inactive); with A549, > 100 µM (inactive); with COLO 205 it was 91.4 µM (inactive); in the assay on EKVX it was 89.7 µM (inactive); with HCC 2998 it was 93.3 µM (inactive); in the assay on HOP-62, > 100 µM (inactive). For the same molecule, the GI50 was 28.6 µM (inactive) in the assay with HOP-92; > 100 µM (inactive) with IGROV-1; 73.1 µM (inactive) in the assay with LOX IMVI; > 100 µM (inactive) in the assay on MCF7; > 100 µM (inactive) in the assay on MDA-MB-231; 15.7 µM (inactive) with MOLT-4. The GI50 with Malme-3M, with OVCAR-4, in the assay on OVCAR-5, in the assay with PC-3, with SF-539 and with U-251 was > 100 µM (inactive) in each case. The GI50 in the assay on UACC-62 is > 100 µM (inactive); with UO-31 it was 68.2 µM (inactive).

As for `COc1ccc(/C=N/n2c(Cc3ccc(Cl)cc3)n[nH]c2=O)c(OC)c1`, the GI50 was 20.4 µM (inactive) with A498; 27.4 µM (inactive) in the assay on A549; > 100 µM (inactive) in the assay on COLO 205; 33.1 µM (inactive) in the assay on EKVX; 44.6 µM (inactive) in the assay with HCC 2998; > 100 µM (inactive) with HOP-62. Besides, the GI50 was 29.2 µM (inactive) with HOP-92; 20.8 µM (inactive) in the assay with IGROV-1; 60.5 µM (inactive) with LOX IMVI; 33.6 µM (inactive) in the assay with MCF7; 52.5 µM (inactive) in the assay with MDA-MB-231; > 100 µM (inactive) with MOLT-4. For the same molecule, the GI50 in the assay on Malme-3M was > 100 µM (inactive); in the assay with OVCAR-4, 16 µM (inactive); with OVCAR-5, 38.3 µM (inactive); in the assay on PC-3 it was 28.8 µM (inactive); in the assay with SF-539, > 100 µM (inactive); in the assay with U-251, 32.2 µM (inactive). The GI50 in the assay with UACC-62 is 24.9 µM (inactive); in the assay with UO-31, > 100 µM (inactive).

For `O=C1/C(=C/c2ccccc2)CN(C(=O)CCN2CCCC2)C/C1=C\c1ccccc1`, the GI50 with A498 is 4.17 µM (inactive); with A549, 3.91 µM (inactive); with COLO 205 it was 1.53 µM (inactive); with EKVX it was 2.49 µM (inactive); in the assay on HCC 2998, 1.77 µM (inactive); in the assay with HOP-62 it was 7.31 µM (inactive). Also, the GI50 in the assay on HOP-92 is 4.44 µM (inactive); in the assay on IGROV-1, 2.67 µM (inactive); in the assay on LOX IMVI, 0.687 µM (active); with MCF7 it was 0.64 µM (active); in the assay on MDA-MB-231 it was 1.51 µM (inactive); in the assay on MOLT-4 it was 0.356 µM (active). In addition, the GI50 is 3.03 µM (inactive) with Malme-3M; 1.57 µM (inactive) in the assay with OVCAR-4; 3.16 µM (inactive) with OVCAR-5; 0.724 µM (active) with PC-3; 1.85 µM (inactive) with SF-539; 0.794 µM (active) in the assay with U-251. In addition, the GI50 was 1.61 µM (inactive) in the assay with UACC-62 and 2.77 µM (inactive) with UO-31.

With `CCC(NC(C)c1ccccc1)C(O)c1ccc(OCc2ccccc2)c(OCc2ccccc2)c1` (stereo not given), the GI50 is 24 µM (inactive) in the assay with A498; 16 µM (inactive) in the assay with A549; 2.23 µM (inactive) with COLO 205; 16.5 µM (inactive) in the assay with EKVX; 2.37 µM (inactive) with HCC 2998; 17.9 µM (inactive) in the assay with HOP-62. The GI50 in the assay with HOP-92 was 5.74 µM (inactive); in the assay with IGROV-1, 18.6 µM (inactive); with LOX IMVI it was 12.1 µM (inactive); in the assay on MCF7, 14.3 µM (inactive); in the assay with MDA-MB-231, 8.47 µM (inactive); in the assay on MOLT-4 it was 14.8 µM (inactive). In addition, the GI50 in the assay with Malme-3M is 14.6 µM (inactive); in the assay on OVCAR-4, 16.4 µM (inactive); in the assay on OVCAR-5 it was 13.1 µM (inactive); in the assay on PC-3 it was 13.9 µM (inactive); with SF-539, 16.8 µM (inactive); in the assay on U-251 it was 13 µM (inactive). The GI50 in the assay with UACC-62 is 17.5 µM (inactive); in the assay with UO-31 it was 11 µM (inactive).

For `CN(C)CCCNc1ncnc2c1ncn2C1OC(CO)C(O)C1O` (stereo not given), the GI50 in the assay on A498, with A549, with COLO 205, in the assay with EKVX, in the assay on HCC 2998 and in the assay with HOP-62 was > 100 µM (inactive) each time. The GI50 in the assay with HOP-92 is > 100 µM (inactive); with IGROV-1 it was 93.5 µM (inactive); in the assay with LOX IMVI, > 100 µM (inactive); in the assay with MCF7, > 100 µM (inactive); with MDA-MB-231 it was > 100 µM (inactive); in the assay with MOLT-4, 54.8 µM (inactive). For the same molecule, the GI50 in the assay on Malme-3M, in the assay on OVCAR-4, in the assay with OVCAR-5, in the assay with PC-3, in the assay with SF-539 and in the assay on U-251 was > 100 µM (inactive) each time. Further, the GI50 in the assay on UACC-62 and in the assay on UO-31 was > 100 µM (inactive) throughout.

Take `O=[N+]([O-])/C(Cl)=C(\Sc1ccccc1)C(Cl)=C(Cl)Cl`: the GI50 in the assay on A498 was 1.72 µM (inactive); in the assay on A549, 0.229 µM (active); in the assay on COLO 205, 0.282 µM (active); in the assay with EKVX, 2.04 µM (inactive); in the assay on HCC 2998, 1.93 µM (inactive); in the assay with HOP-62 it was 2.06 µM (inactive). Besides, the GI50 with HOP-92 was 1.91 µM (inactive); in the assay on IGROV-1, 1.28 µM (inactive); with LOX IMVI, 0.207 µM (active); in the assay with MCF7, 0.159 µM (active); in the assay with MDA-MB-231 it was 0.264 µM (active); in the assay on MOLT-4, 0.348 µM (active). Besides, the GI50 in the assay with Malme-3M is 0.647 µM (active); in the assay on OVCAR-4, 1.49 µM (inactive); in the assay with OVCAR-5 it was 1.86 µM (inactive); with PC-3, 2.01 µM (inactive); in the assay on SF-539, 1.56 µM (inactive); with U-251, 1.29 µM (inactive). The values for the GI50 with UACC-62 and with UO-31 were 0.647 µM (active) and 0.284 µM (active), respectively.

Turning to `COc1ccc(NS(=O)(=O)c2ccc(NC(NC(=O)CC(C)C)(C(F)(F)F)C(F)(F)F)cc2)nn1`, the GI50 with A498, with A549, in the assay with COLO 205, in the assay with EKVX, in the assay on HCC 2998 and in the assay with HOP-62 was > 100 µM (inactive) each time. For the same molecule, the GI50 in the assay on HOP-92, with IGROV-1, in the assay on LOX IMVI, with MCF7, in the assay with MDA-MB-231 and in the assay with MOLT-4 was > 100 µM (inactive) each time. For the same molecule, the GI50 in the assay with Malme-3M, with OVCAR-4, in the assay with OVCAR-5, in the assay with PC-3, in the assay on SF-539 and with U-251 was > 100 µM (inactive) throughout. Moreover, the GI50 in the assay with UACC-62 and with UO-31 was > 100 µM (inactive) in each case.

Consider `COc1cc2c(cc1C)NC(=O)/C2=C/c1c(Cl)[nH]c2cc(C)c(OC)cc12`, for which the GI50 is 8.73 µM (inactive) in the assay with A498; 4.55 µM (inactive) in the assay on A549; 2.33 µM (inactive) with COLO 205; 8.04 µM (inactive) in the assay with EKVX; 4.11 µM (inactive) with HCC 2998; 10.1 µM (inactive) in the assay with HOP-62. Moreover, the GI50 was 10.3 µM (inactive) in the assay on HOP-92; 1.32 µM (inactive) with IGROV-1; 2.42 µM (inactive) in the assay on LOX IMVI; 1.4 µM (inactive) in the assay on MCF7; 13.2 µM (inactive) in the assay with MDA-MB-231; 1.45 µM (inactive) in the assay with MOLT-4. The GI50 in the assay on Malme-3M is 11.5 µM (inactive); with OVCAR-4, 5.48 µM (inactive); in the assay with OVCAR-5, 7.78 µM (inactive); with PC-3, 4.23 µM (inactive); with SF-539, 0.395 µM (active); in the assay with U-251, 2.86 µM (inactive). Further, the GI50 in the assay on UACC-62 is 2.07 µM (inactive); in the assay on UO-31, 10 µM (inactive).

As for `COc1cc(-c2oc3c(OC)c(O)c(OC)c(O)c3c(=O)c2OC)cc(O)c1OC`, the GI50 with A498 is 22.5 µM (inactive); in the assay on A549 it was 46.9 µM (inactive); in the assay with COLO 205 it was 67.8 µM (inactive); with EKVX, 39.2 µM (inactive); in the assay on HCC 2998, 31.3 µM (inactive); in the assay on HOP-62, 40.5 µM (inactive). The GI50 with HOP-92 was 39.4 µM (inactive); in the assay on IGROV-1, 12.1 µM (inactive); with LOX IMVI it was 28.4 µM (inactive); with MCF7, 29.6 µM (inactive); in the assay on MDA-MB-231, 46.2 µM (inactive); in the assay on MOLT-4, 42.9 µM (inactive). Also, the GI50 in the assay with Malme-3M is 23.9 µM (inactive); in the assay with OVCAR-4, > 100 µM (inactive); with OVCAR-5, 56.6 µM (inactive); with PC-3 it was 33.3 µM (inactive); in the assay on SF-539 it was 20.7 µM (inactive); in the assay with U-251, 43.4 µM (inactive). Further, the GI50 was 22.4 µM (inactive) with UACC-62 and 23.5 µM (inactive) in the assay on UO-31.

The record behind these values is ChEMBL document CHEMBL1201862, “PubChem BioAssay data set” (2004).
